Read-outs that look alike come from different tables or passages of the source.
What was measured:
[1] = Description: Various pharmaceutical drug actives and prodrugs were screened to test for solubility in the compositions including alpha-hydroxy acid esters. Solubility was determined by adding various amounts of the drug to a composition including alpha-hydroxy acid esters, mixing, and then visually determining the solubility. The composition selected for the screening was Imwitor™ 380, a partially neutralized mixture of citric acid/lactic acid esters of partial glycerides. Imwitor™ 380 contains approximately 60% citric acid/lactic acid esters of partial glycerides, less than 32% 1-monoglyceride, and not more than 5% glycerol (Product Information Sheet, 26.13.199e/07.98; Sasol).
Mixtures were based on weight/weight and ranged from 5% drug/95% Imwitor™ 380 to 15% drug/85% Imwitor™ 380. The samples were prepared in 12 ml glass vials, containing a stirbar to ensure adequate mixing, and sealed with Teflon lined caps (National Scientific Co.; vial: part no B7800-12; cap: 15-425).

[2] = remark: listed apart in the source
Description: Mixtures were based on weight/weight and ranged from 5% drug/95% unneutralized Imwitor™ 380 to 10% drug/90% unneutralized Imwitor™ 380. The samples were prepared in scintillation vials (Research Products International) containing a stirbar to ensure adequate mixing.

Row | Solubility [1] | Solubility [2] | SMILES
1 | >150 mg/gm | >100 mg/gm | CCOC(=O)C(C)(C)Oc1ccc(Cl)cc1 [Clofibrate, clofibrate]
2 | >150 mg/gm | >100 mg/gm | CCCC(CCC)C(=O)O [Valproic Acid, valproic acid]
